Experimental data published in patent US9891212B2, “Screening method, a kit, a method of treatment and a compound for use in a method of treatment” (ATROGI AB, priority 2013, dated 2018).

Tests used:
L6-myotubes [1] = assay: 3H-2-deoxy-glucose uptake in L6-myotubes; assay type: cell-based; details: for glucose uptake, isoprenaline versus BRL 37344: 2 h stimulation with 10^-5 M, n=7, FIG. 9
Description: Glucose uptake was measured in L6-myotubes grown in 12-well plates using ^3H-2-dexoy-glucose as previously described (Nevzorova et al. 2002) with minor modifications. L6-cells were differentiated for 7-8 days before the experiment, serum-starved over night in media containing 0.5% fatty-acid free BSA and stimulated with BRL 373 44 or Isoprenaline totally 2 h, unless otherwise stated. SQ 22 536 or ICI 118 551 were added 30 min before stimulation. 25 min before the end of the experiment, cells were washed twice in warm PBS and kept in glucose-free DMEM together with the different drugs for 10 min before 50 nM ^3H-2-deoxy-glucose was added for additional 6 minutes. The reaction was terminated by washing the cells in ice-cold PBS three times. Cells were lysed in 0.2 NaOH for 1 h in 60° C. and the radioactivity detected by liquid scintillation (scintillation buffer Emulsifier Safe, Perking Elmer and analysis is a Tri-Carb® 2800TR from Perkin Elmer).

β3-KO mice [2] = assay: blood glucose over time (glucose tolerance); assay type: in vivo; details: 1 mg per kg i.p., FIG. 15
Description: FIG. 15 is a graph showing variation over time of blood glucose (in mM) in β3-KO mice after ip injection of either saline or BRL 37344 (1 mg per kg). P<0.01 for the effect of BRL 37344 with two-way ANOVA.

GLUT4 = GLUT4 translocation to the plasma membrane in L6 cells (immunofluorescence); assay type: cell-based; details: 2 h stimulation, FIGS. 12 and 13
Description: L6 cells were grown in 8-well culture chamber slides (BD Biosciences, Franklin Lakes, BJ), serum starved overnight and stimulated with insulin, isoproterenol or BRL 37344 for 2 h. Cells were fixed for 5 min with 4% formaldehyde in PBS, quenched with 50 mM glycine in PBS for 10 min, blocked with 5% BSA in PBS and incubated with primary antibodies (diluted in 1.5% BSA in PBS) overnight at 4° C. As primary antibody anti GLUT4 binding to extracellular parts of GLUT4 (Santa Cruz Biotechnology, sc-1606, dilution 1:125) was used. Cells were then washed with PBS and incubated with Alexa Fluor® 488-conjugated goat anti-rabbit IgG (1:500 dilution, 1.5% BSA in PBS) for 1 h. Slides were mounted with ProLong® Gold antifade reagent (Invitrogen) and fluorescence micrographs were obtained (FIG. 12).

L6 skeletal muscle cells = assay: cAMP levels in L6 skeletal muscle cells (alpha-screen cAMP kit); assay type: cell-based
Description: L6 myocytes were obtained from ATCC and grown in Dulbecco's Modified Eagle's Medium (DMEM) containing 4.5 g/L glucose supplemented with 10% fetal bovine serum (FBS), 2 mM L-Glutamine, 50 U/ml penicillin, 50 μg/ml streptomycin and 10 mM HEPES. Cells were plated in 12- or 96-well plates and after reaching confluence differentiation was induces by differentiation media containing 2% FBS.
L6-cells were differentiated in 96-well plates and after 7 days of differentiation cells serum-starved and treated with drugs in stimulation buffer (HBSS supplemented with 1% BSA and 5 mM HEPES, pH 7.4). To end the reaction cells were harvested in ice-cold lysis buffer (0.3% Tween-20, 5 mM Hepes, 1% BSA and 1 mM IBMX, pH 7.4). Levels of cAMP were detected by an alpha-screen cAMP kit (6760625R from Perkin Elmer) according to the manufactures instruction.
The cAMP was measured in L6-myotubes after 2 h stimulation. The results (FIG. 3) indicate that BRL 37344 cannot be considered a general beta2-adrenergic receptor agonist (or beta1-adrenergic receptor) stimulating cAMP in skeletal muscle cells.

β3-KO mice [3] = assay: in vivo 3H-2-deoxy-glucose uptake in soleus and gastrocnemius muscle; details: 1 mg/kg i.p., CPM per gram tissue divided by CPM per gram blood, FIG. 14
Description: β3-KO mice on FVB background, 12-16 weeks old, were anaesthetised with pentobarbital (67 mg/kg). BRL 37344 (1 mg/kg) or saline was injected i.p. about 10 min after induction of anaesthesia. After 20 min ^3H-2-deoxy-glucose (16 nM/130 μCi per kg of mouse) diluted in 100 μl saline was injected. Mice were killed 1 h after injection of 2-deoxy-glucose. Blood sample was taken from heart and soleus and gastrocnemius were dissected out. Tissues were weighed and dissolved in 0.5 M NaOH in 60° C. Radioactivity was detected as described above. The results are expressed as CPM per gram tissue divided by CPM per gram blood.

L6-myotubes [4] = assay: western blot for detection of phospho-CREB in L6-myotubes; assay type: cell-based; details: 10^-5 M, 10 to 120 min, FIGS. 5 and 6
Description: L6-myotubes were harvested and subjected to western blot for detection of phospho-CREB. For measuring protein phosphorylation of a target downstream cAMP cells were treated as indicated and harvested in pre-warmed SDS sample buffer containing 50 mM dithiothreitol, sonicated and boiled for 5 min. Proteins were separated on a 12% polyacrylamide gel for 3 h at 80 V. The proteins were transferred onto Hypbond-P PVDF membrane (GE Healthcare) which was blocked in milk for 1 h and probed with primary antibodies. All antibodies were purchased from Cell Signaling and diluted 1:1000: Primary antibodies were detected using a secondary antibody (horseradish peroxidase-linked anti-rabbit IgG, #7074) diluted 1:2000 and enhanced chemiluminescence (ECL plus, GE Healthcare). Photos were taken in a CCD camera (Fuji Las 1000) and quantification performed in software ImageJ.
Lanes 1 and 7=basal, 2-6=isoprenaline treatment for 10, 15, 30, 60 and 120 min, 8-12=BRL 37344 treatment for 10, 15, 30, 60 and 120 min. […] Quantification of n=3 blots (FIG. 6).

Structure (SMILES) | glucose uptake, isoprenaline versus BRL 37344 (L6-myotubes [1]) | maximum blood glucose compared to control mice (β3-KO mice [2]) | GLUT4 translocation to the plasma membrane (GLUT4) | cAMP levels at different concentrations (L6 skeletal muscle cells; L6-myotubes, 2 h stimulation, FIG. 3) | cAMP at time points examined (L6 skeletal muscle cells; L6 skeletal muscle cells, 0 min to 25 min of contact, FIG. 2) | cAMP over basal (L6 skeletal muscle cells; L6 skeletal muscle cells, FIG. 1) | glucose uptake in both skeletal muscles relative to control mice (β3-KO mice [3]) | BRL 37344 stimulated glucose uptake with beta2 inhibition (L6-myotubes [1]; BRL 37344 10 μM, 2 h, in presence of 10 μM ICI 118551, FIG. 11) | glucose uptake at different concentrations (L6-myotubes [1]; L6-myotubes, 2 h stimulation, n=7, FIG. 8) | glucose uptake at different time points (L6-myotubes [1]; L6-myotubes, BRL 37344 10 μM, FIG. 7) | BRL 37344 stimulated glucose uptake with inhibition of adenylyl cyclase (L6-myotubes [1]; SQ 22536 500 μM added 30 min before stimulation, FIG. 10) | phospho-CREB (downstream target of cAMP) (L6-myotubes [4])
CC(C)NCC(O)c1ccc(O)c(O)c1 (racemic) [isoprenaline, (RS)-4-[1-hydroxy-2-(isopropylamino)ethyl]benzene-1,2-diol] | no significant difference between the responses |  |  |  |  |  |  |  |  |  |  | 
C[C@H](Cc1ccc(OCC(=O)O)cc1)NC[C@H](O)c1cccc(Cl)c1 (relative stereo) [BRL 37344, (±)-(R*,R*)-[4-[2-[[2-(3-chlorophenyl)-2-hydroxyethyl]amino]propyl]phenoxy]acetic acid] | no significant difference between the responses | substantially reduced | increase of GLUT4 translocation to the plasma membrane | no or little impact on cAMP levels | At no time point examined did BRL 37344 increase cAMP | did not significantly increase cAMP over basal | 2-3 times higher | fully inhibits | increases glucose uptake | increases during time | does not decrease | not affected
